Test results as given in patent US20250312462A1, “PAK1 DEGRADERS AND METHODS OF USE THEREOF” (INSTITUTE FOR CANCER RESEARCH D/B/A THE RESEARCH INSTITUTE …, priority 2022, published 2025).

What was measured:
Test in all cases: KINOMEscan
ALK(L1196M) = ALK(L1196M) (Homo sapiens, UniProt Q9UM73, L1196M); details: read-out: Percent Control
Experimental: (§1) The kinase engagement assay (KINOMEscan®) was performed by DiscoverX assessing binding abilities toward a set of kinases.

MEK5 = MEK5 (Homo sapiens, UniProt Q13163); details: read-out: Percent Control
Experimental: as §1

ERBB4 = ERBB4 (Homo sapiens, UniProt Q15303); details: read-out: Percent Control
Experimental: as §1

[1] = target: ABL1(Y253F)-phosphorylated (Homo sapiens, UniProt P00519, Y253F); details: read-out: Percent Control
Experimental: as §1

FLT3(ITD) = details: 10 μM
Experimental: as §1

[2] = target: ABL1(M351T)-phosphorylated (Homo sapiens, UniProt P00519, M351T); details: read-out: Percent Control
Experimental: as §1

KIT(V559D, V654A) = KIT(V559D, V654A) (Homo sapiens, UniProt P10721, V559D/V654A); details: read-out: Percent Control
Experimental: as §1

MELK = MELK (Homo sapiens, UniProt Q14680); details: read-out: Percent Control
Experimental: as §1

CDK3 = CDK3 (Homo sapiens, UniProt Q00526); details: read-out: Percent Control
Experimental: as §1

TEC = TEC (Homo sapiens, UniProt P42680); details: read-out: Percent Control
Experimental: as §1

MAP3K1 = MAP3K1 (Homo sapiens, UniProt Q13233); details: read-out: Percent Control
Experimental: as §1

PIK3C2B = PIK3C2B (Homo sapiens, UniProt O00750); details: read-out: Percent Control
Experimental: as §1

[3] = target: JAK1(JH1domain-catalytic) (Homo sapiens, UniProt P23458); details: read-out: Percent Control
Experimental: as §1

AKT2 = AKT2 (Homo sapiens, UniProt P31751); details: read-out: Percent Control
Experimental: as §1

EPHB1 = EPHB1 (Homo sapiens, UniProt P54762); details: read-out: Percent Control
Experimental: as §1

CSNK2A2 = CSNK2A2 (Homo sapiens, UniProt P19784); details: read-out: Percent Control
Experimental: as §1

PFPK5(P. falciparum) = target: T1, PFPK5(P. falciparum) (Plasmodium falciparum, UniProt P61075); assay type: binding; details: read-out: Percent Control
T1 construct: purchased DiscoverX

EGFR(L747-T751del, Sins) = EGFR(L747-T751del, Sins) (Homo sapiens, UniProt P00533, DEL747-750/T751S); details: read-out: Percent Control
Experimental: as §1

AMPK-alpha1 = AMPK-alpha1 (Homo sapiens, UniProt Q13131); details: read-out: Percent Control
Experimental: as §1

p38-delta = p38-delta (Homo sapiens, UniProt O15264); details: read-out: Percent Control
Experimental: as §1

LATS2 = LATS2 (Homo sapiens, UniProt Q9NRM7); details: read-out: Percent Control
Experimental: as §1

SRPK2 = SRPK2 (Homo sapiens, UniProt P78362); details: read-out: Percent Control
Experimental: as §1

TXK = TXK (Homo sapiens, UniProt P42681); details: read-out: Percent Control
Experimental: as §1

HIPK2 = HIPK2 (Homo sapiens, UniProt Q9H2X6); details: read-out: Percent Control
Experimental: as §1

TAOK1 = TAOK1 (Homo sapiens, UniProt Q7L7X3); details: read-out: Percent Control
Experimental: as §1

TGFBR1 = TGFBR1 (Homo sapiens, UniProt P36897); details: read-out: Percent Control
Experimental: as §1

RET(M918T) = RET(M918T) (Homo sapiens, UniProt P07949, M918T); details: read-out: Percent Control
Experimental: as §1

[4] = target: ABL1(F317L)-phosphorylated (Homo sapiens, UniProt P00519, F317L); details: read-out: Percent Control
Experimental: as §1

PIP5K2B = PIP5K2B (Homo sapiens, UniProt P78356); details: read-out: Percent Control
Experimental: as §1

MST1 = MST1 (Homo sapiens, UniProt Q13043); details: read-out: Percent Control
Experimental: as §1

YANK3 = YANK3 (Homo sapiens, UniProt Q86UX6); details: read-out: Percent Control
Experimental: as §1

DMPK2 = DMPK2 (Homo sapiens, UniProt Q6DT37); details: read-out: Percent Control
Experimental: as §1

PKAC-beta = PKAC-beta (Homo sapiens, UniProt P22694); details: read-out: Percent Control
Experimental: as §1

HCK = HCK (Homo sapiens, UniProt P08631); details: read-out: Percent Control
Experimental: as §1

PIK3CA(E542K) = PIK3CA(E542K) (Homo sapiens, UniProt P42336, E542K); details: read-out: Percent Control
Experimental: as §1

PKN2 = PKN2 (Homo sapiens, UniProt Q16513); details: read-out: Percent Control
Experimental: as §1

EPHA2 = EPHA2 (Homo sapiens, UniProt P29317); details: read-out: Percent Control
Experimental: as §1

Sequence of SRPK2 (P78362 whole entry): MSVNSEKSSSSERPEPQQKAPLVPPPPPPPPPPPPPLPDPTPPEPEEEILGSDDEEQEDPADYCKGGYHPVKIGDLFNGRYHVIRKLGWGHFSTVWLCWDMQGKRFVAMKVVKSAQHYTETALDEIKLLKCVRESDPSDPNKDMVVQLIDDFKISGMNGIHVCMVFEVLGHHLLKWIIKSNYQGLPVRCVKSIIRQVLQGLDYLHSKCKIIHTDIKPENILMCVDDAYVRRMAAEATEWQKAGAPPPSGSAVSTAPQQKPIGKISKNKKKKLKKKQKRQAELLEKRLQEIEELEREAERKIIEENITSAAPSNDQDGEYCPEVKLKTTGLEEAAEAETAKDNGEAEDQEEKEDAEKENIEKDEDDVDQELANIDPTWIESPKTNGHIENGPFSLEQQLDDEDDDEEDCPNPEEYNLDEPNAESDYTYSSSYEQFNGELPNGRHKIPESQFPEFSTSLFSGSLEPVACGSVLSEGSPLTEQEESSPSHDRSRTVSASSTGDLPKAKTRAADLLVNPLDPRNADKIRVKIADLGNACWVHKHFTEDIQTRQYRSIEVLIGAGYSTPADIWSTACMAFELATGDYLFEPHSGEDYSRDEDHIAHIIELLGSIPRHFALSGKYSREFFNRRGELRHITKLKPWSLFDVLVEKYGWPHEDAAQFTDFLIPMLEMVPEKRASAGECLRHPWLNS
Sequence of TXK (P42681 whole entry): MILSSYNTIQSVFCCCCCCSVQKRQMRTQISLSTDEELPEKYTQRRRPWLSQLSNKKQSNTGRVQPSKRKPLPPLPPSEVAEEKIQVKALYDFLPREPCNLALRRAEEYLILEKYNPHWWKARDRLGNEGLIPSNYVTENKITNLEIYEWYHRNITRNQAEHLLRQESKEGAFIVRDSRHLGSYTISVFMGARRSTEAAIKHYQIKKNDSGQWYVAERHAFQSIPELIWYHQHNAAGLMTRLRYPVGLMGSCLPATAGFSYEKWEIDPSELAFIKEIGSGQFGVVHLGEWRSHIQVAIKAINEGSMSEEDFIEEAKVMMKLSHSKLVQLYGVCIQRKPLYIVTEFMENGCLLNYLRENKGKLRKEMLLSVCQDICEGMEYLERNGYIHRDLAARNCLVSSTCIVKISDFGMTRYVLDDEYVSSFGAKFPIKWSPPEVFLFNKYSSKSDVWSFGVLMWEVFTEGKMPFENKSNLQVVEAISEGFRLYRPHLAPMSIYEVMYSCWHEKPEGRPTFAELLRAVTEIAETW
Sequence of PIK3CA(E542K) (P42336 whole entry E542K): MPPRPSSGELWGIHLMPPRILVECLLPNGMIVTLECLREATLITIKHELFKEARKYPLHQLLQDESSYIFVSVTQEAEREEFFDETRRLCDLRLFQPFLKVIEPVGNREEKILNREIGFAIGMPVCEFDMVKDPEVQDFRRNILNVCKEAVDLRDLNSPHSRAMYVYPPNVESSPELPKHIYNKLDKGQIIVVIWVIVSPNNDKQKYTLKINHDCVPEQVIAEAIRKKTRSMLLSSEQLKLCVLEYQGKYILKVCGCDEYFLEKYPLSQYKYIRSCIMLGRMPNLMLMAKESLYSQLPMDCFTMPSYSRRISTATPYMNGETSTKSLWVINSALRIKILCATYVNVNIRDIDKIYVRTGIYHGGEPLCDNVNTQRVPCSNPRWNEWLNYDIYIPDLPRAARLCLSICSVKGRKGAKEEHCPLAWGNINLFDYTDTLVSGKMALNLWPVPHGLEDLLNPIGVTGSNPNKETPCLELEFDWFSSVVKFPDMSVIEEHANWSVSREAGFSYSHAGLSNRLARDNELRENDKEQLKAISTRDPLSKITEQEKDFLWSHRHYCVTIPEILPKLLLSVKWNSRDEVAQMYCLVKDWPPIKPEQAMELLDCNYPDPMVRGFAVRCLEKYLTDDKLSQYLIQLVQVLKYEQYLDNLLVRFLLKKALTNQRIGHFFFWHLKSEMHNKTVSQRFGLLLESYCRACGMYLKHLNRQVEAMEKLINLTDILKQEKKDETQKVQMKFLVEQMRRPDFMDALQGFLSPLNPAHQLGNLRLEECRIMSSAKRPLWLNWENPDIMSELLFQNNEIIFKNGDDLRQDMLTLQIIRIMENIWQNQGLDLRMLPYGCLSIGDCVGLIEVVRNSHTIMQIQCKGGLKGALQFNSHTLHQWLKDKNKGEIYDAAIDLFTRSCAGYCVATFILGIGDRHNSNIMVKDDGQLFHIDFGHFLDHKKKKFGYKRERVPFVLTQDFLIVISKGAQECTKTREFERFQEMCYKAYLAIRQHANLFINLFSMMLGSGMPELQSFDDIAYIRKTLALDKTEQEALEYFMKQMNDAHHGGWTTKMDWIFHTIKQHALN
Sequence of PIK3C2B (O00750 whole entry): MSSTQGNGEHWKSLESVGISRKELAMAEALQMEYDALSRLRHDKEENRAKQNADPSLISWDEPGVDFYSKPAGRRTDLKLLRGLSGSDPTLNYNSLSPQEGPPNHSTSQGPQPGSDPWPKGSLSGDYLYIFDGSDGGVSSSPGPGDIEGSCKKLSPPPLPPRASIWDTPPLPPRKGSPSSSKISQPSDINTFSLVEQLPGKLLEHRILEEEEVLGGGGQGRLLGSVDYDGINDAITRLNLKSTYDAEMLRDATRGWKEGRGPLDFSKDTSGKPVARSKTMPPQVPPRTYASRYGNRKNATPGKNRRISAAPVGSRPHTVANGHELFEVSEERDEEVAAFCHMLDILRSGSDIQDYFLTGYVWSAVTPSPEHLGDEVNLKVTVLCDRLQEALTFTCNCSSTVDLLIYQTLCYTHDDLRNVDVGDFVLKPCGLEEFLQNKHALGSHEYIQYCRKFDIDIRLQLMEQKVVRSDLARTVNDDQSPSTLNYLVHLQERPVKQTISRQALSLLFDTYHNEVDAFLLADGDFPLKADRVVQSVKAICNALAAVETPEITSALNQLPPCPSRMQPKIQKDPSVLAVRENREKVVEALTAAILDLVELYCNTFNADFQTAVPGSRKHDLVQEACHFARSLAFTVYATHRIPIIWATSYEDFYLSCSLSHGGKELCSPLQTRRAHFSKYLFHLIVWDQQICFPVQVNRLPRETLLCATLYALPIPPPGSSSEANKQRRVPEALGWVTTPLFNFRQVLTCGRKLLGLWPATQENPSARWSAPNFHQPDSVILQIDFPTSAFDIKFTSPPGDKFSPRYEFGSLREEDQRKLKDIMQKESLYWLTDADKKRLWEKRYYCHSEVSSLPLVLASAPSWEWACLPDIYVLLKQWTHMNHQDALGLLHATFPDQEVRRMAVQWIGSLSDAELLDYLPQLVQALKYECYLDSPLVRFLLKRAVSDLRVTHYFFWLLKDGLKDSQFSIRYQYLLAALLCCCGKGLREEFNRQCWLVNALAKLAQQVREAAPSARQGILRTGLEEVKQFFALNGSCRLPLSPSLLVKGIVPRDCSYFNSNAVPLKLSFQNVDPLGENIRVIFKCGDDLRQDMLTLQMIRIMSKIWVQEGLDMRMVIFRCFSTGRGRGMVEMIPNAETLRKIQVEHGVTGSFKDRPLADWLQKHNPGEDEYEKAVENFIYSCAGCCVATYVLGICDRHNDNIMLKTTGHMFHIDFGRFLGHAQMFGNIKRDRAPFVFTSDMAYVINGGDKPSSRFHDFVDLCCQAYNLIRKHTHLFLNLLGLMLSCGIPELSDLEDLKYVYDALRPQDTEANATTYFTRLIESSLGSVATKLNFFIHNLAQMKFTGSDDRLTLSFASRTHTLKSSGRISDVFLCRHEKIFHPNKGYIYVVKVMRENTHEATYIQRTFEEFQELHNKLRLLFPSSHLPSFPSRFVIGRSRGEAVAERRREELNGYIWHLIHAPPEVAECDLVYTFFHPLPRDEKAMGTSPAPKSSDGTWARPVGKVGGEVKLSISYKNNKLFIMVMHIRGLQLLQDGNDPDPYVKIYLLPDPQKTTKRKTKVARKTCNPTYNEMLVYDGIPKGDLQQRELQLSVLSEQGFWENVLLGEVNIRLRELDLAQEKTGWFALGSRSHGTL
Sequence of MELK (Q14680 whole entry): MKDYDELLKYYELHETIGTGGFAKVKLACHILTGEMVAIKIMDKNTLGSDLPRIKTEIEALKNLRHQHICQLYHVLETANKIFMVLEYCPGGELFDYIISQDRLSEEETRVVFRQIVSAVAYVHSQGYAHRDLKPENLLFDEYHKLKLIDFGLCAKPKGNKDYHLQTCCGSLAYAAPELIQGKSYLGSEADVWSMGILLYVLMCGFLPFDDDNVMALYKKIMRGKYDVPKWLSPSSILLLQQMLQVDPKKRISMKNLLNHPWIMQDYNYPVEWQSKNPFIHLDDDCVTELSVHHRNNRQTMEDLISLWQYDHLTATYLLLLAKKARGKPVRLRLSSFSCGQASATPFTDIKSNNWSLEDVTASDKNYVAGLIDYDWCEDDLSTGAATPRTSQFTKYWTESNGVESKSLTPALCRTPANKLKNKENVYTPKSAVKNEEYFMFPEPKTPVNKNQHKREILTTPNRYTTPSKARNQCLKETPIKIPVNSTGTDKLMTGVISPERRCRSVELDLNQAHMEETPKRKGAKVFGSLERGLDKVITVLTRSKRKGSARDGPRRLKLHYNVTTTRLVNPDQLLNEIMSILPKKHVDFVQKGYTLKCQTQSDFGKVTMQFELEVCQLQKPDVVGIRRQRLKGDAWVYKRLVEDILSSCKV
Sequence of PIP5K2B (P78356 whole entry): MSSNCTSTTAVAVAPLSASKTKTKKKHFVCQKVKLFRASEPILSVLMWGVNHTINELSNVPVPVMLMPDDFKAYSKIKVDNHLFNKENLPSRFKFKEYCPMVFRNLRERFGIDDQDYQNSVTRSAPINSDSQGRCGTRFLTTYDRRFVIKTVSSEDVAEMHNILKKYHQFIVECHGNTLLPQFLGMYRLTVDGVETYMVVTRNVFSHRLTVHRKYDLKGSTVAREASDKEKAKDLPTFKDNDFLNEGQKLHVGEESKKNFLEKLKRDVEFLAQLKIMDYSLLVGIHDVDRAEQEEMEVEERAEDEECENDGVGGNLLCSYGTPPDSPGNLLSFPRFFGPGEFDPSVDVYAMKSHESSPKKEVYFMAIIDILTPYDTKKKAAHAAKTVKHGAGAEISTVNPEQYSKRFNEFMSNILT

## O=C1CCC(N2C(=O)c3cccc(NCCCCCCCCNC(=O)N4CC[C@H](NC5=Nc6cc(F)ccc6N(CC(F)F)c6ccc(Cl)cc65)C4)c3C2=O)C(=O)N1 (stereo partly drawn) [BJG-05-039, (3S)-3-((2-Chloro-5-(2,2-difluoroethyl)-8-fluoro-5H-dibenzo[b,e][1,4]diazepin-11-yl)amino)-N-(8-((2-(2,6-dioxopiperidin-3-yl)-1,3-dioxoisoindolin-4-yl)amino)octyl)pyrrolidine-1-carboxamide]
ALK(L1196M)
  remaining binding at 10 µM: 100%
MEK5
  remaining binding at 10 µM: 100%
ERBB4
  remaining binding at 10 µM: 97%
[1]
  remaining binding at 10 µM: 100%
FLT3(ITD)
  Percent Control: 87
[2]
  remaining binding at 10 µM: 100%
KIT(V559D, V654A)
  remaining binding at 10 µM: 63%
MELK
  remaining binding at 10 µM: 81%
CDK3
  remaining binding at 10 µM: 74%
TEC
  remaining binding at 10 µM: 82%
MAP3K1
  remaining binding at 10 µM: 100%
PIK3C2B
  remaining binding at 10 µM: 90%
[3]
  remaining binding at 10 µM: 42%
AKT2
  remaining binding at 10 µM: 86%
EPHB1
  remaining binding at 10 µM: 98%
CSNK2A2
  remaining binding at 10 µM: 78%
PFPK5(P. falciparum)
  remaining binding at 10 µM: 100%
EGFR(L747-T751del, Sins)
  remaining binding at 10 µM: 80%
AMPK-alpha1
  remaining binding at 10 µM: 86%
p38-delta
  remaining binding at 10 µM: 92%
LATS2
  remaining binding at 10 µM: 100%
SRPK2
  remaining binding at 10 µM: 91%
TXK
  remaining binding at 10 µM: 90%
HIPK2
  remaining binding at 10 µM: 100%
TAOK1
  remaining binding at 10 µM: 95%
TGFBR1
  remaining binding at 10 µM: 100%
RET(M918T)
  remaining binding at 10 µM: 90%
[4]
  remaining binding at 10 µM: 100%
PIP5K2B
  remaining binding at 10 µM: 100%
MST1
  remaining binding at 10 µM: 90%
YANK3
  remaining binding at 10 µM: 72%
DMPK2
  remaining binding at 10 µM: 72%
PKAC-beta
  remaining binding at 10 µM: 62%
HCK
  remaining binding at 10 µM: 90%
PIK3CA(E542K)
  remaining binding at 10 µM: 91%
PKN2
  remaining binding at 10 µM: 65%
EPHA2
  remaining binding at 10 µM: 82%
